Data reported in US20120258929A1, “AGENT THAT MODULATES PHYSIOLOGICAL CONDITION OF PESTS, INVOLVED IN INSECT PEPTIDYL-DIPEPTIDASE A ACTIVITY” (SUMITOMO CHEMICAL COMPANY, LIMITED, priority 2005, published 2012).

Tests used:
Aphis gossypil = test: Pesticidal activity test, artificial feed rearing, surviving aphids after six days; type: in vivo
Experimental: A sterilized artificial feed having the following composition (Table 3) was prepared. […] Controlling value (%)={1−(Cb×Tai)/(Cai×Tb)}×100 Letters in the equation represent the following meanings.

[1] = biological target: aphid peptidyl-dipeptidase A (Aphis gossypii, UniProt A0A2K9Y4D7); test: Inhibition of aphid peptidyl-dipeptidase A activity, in vitro, substrate Abz-Gly-p-nitro-Phe-Pro-OH; type: biochemical, cotton aphid (Aphis gossypii); settings: for Activity of inhibiting peptidyl-dipeptidase A activity (inhibition degree (%) at 10 μM addition) / inhibition at 10 µM: test compound in DMSO, final concentration 10 μM, relative to DMSO control; for inhibition at 10 µM: read-out: Activity of inhibiting peptidyl-dipeptidase A activity (inhibition degree (%) at 10 μM addition); for IC50: concentrations 100 to 0.03 μM, calculated with XL fit, read-out: Activity of inhibiting peptidyl-dipeptidase A activity IC50, (μM))
aphid peptidyl-dipeptidase A, sequence (A0A2K9Y4D7 entry or part of it): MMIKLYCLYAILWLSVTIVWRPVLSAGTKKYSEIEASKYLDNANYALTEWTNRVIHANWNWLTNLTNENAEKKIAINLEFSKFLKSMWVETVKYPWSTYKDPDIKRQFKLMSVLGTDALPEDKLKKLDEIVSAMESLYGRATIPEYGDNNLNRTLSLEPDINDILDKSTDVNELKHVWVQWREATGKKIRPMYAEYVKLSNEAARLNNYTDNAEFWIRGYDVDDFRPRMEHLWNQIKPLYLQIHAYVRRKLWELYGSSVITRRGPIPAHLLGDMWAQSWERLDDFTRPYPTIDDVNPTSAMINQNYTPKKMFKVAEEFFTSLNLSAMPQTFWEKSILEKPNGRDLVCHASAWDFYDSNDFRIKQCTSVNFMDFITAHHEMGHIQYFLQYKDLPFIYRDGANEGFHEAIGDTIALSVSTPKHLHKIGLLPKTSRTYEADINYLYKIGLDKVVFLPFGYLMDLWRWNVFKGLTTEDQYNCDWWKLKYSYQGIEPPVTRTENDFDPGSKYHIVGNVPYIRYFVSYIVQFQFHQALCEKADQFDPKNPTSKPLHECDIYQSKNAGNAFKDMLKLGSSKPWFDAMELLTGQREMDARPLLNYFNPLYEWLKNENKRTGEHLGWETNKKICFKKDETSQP
Experimental: Selection of a compound which modulates the activity of a peptidyl-dipeptidase A was performed in a system where the activity of a peptidyl-dipeptidase A which is modulated by adding a test compound to an in vitro reaction system using the aphid peptidyl-dipeptidase A prepared in Example 7 is measured and evaluated.
Measurement of the activity of the aphid peptidyl-dipeptidase A was performed according to a method using Abz-Gly-p-nitro-Phe-Pro-OH (manufactured by Bachem, M-1100) as a substrate, as described in the previously reported article (Carmel et al. (1979) Clinica Chimica Acta, 93, 215-220).
For measuring the activity, the activity of the aphid peptidyl-dipeptidase A was measured when a test compound dissolved in DMSO was contained to a final concentration of 10 μM. In addition, the activity of the aphid peptidyl-dipeptidase A was measured when DMSO was contained in place of a test compound. Then, a ratio (%) of a measured value of the activity of the aphid peptidyl-dipeptidase A when a test compound dissolved in DMSO was contained, relative to a measured value of the activity of aphid peptidyl-dipeptidase A when DMSO was contained in place of the test compound was calculated, and a value obtained by subtracting the calculated value from 100% was adopted as an inhibition degree (%).
The activity of aphid peptidyl-dipeptidase A was measured when a test compound dissolved in DMSO was contained to a final concentration of each concentration of 100 μM, 30 μM, 10 μM, 3 μM, 1 μM, 0.3 μM, 0.1 μM or 0.03 μM.

[2] = test compound dissolved in DMSO to a final concentration of 640 μM, added at 0.5% volume of artificial feed, significant controlling value (e.g. 30% or more) = pesticidal activity
[3] = test compound dissolved in DMSO to a final concentration of 50 ppm, otherwise as Example 9

Row | Compound | Determination result of pesticidal activity (Aphis gossypil; [2]) | Activity of inhibiting peptidyl-dipeptidase A activity (inhibition degree (%) at 10 μM addition) [1] | Determination result of pesticidal activity (Aphis gossypil; [3]) | inhibition at 10 µM [1] | IC50 [1] | Determination result of pesticidal activity (Aphis gossypil; […], significant controlling value (e.g. 30% or more) = pesticidal activity)
1 | CCN(CC)CCO[C@H]1CC[C@@]2(C)C(=CC[C@@H]3[C@@H]2CC[C@]2(C)C(=O)CC[C@@H]32)C1 [3-beta-[2-(diethylamino)ethoxy]androst-5-en-17-one] | Presence of pesticidal activity | 17% |  |  |  | 
2 | CC12CCC3c4ccc(O)cc4CCC3C1C/C(=C\c1ccc(OC(F)(F)F)cc1)C2=O (stereo not drawn) [DF15164] |  |  | Absence of pesticidal activity |  |  | 
3 | COC(=O)C(Cc1ccccc1)NC(=O)Nc1n[nH]c(=S)s1 (stereo not drawn) [MMP-2/MMP-3 inhibitor I] | Presence of pesticidal activity |  |  | 79% |  | 
4 | CCOC(=O)[C@H](CCc1ccccc1)N[C@H]1CCc2ccccc2N(CC(=O)O)C1=O [benazepril] | Presence of pesticidal activity |  | Presence of pesticidal activity | 41% | 15.9 µM | 
5 | C[C@H](CS)C(=O)N1CCC[C@H]1C(=O)O [captopril] |  |  |  | 99% |  | 
6 | CCOC(=O)[C@H](CCc1ccccc1)N[C@@H](C)C(=O)N1CCC[C@H]1C(=O)O [enalapril] | Presence of pesticidal activity |  |  | 98% |  | 
7 | CCOC(=O)[C@H](CCc1ccccc1)N[C@@H](C)C(=O)N1[C@H](C(=O)O)C[C@@H]2CCC[C@@H]21 [ramipril] | Presence of pesticidal activity |  |  | 16% |  | 
8 | quinapril |  | 15% | Presence of pesticidal activity |  | 35.8 µM | Presence of pesticidal activity
